Laboratory results published in patent US10681909B2, “Herbicidal triazoles” (FMC Corporation, priority 2014, dated 2020).

How the values were obtained:
[1] = test system: ryegrass, Ital.; test: Test D postemergence; format: in vivo, Lolium multiflorum; conditions: scale 0 to 100
Text: (§1) Seeds of plant species selected from bluegrass (annual bluegrass, Poa annua), blackgrass (Alopecurus myosuroides), canarygrass (Phalaris minor), chickweed (common chickweed, Stellaria media), galium (catchweed bedstraw, Galium aparine), bromegrass, down (downy bromegrass, Bromus tectorum), Russian thistle (Salsola kali), field poppy (Papaver rhoeas), field violet (Viola arvensis), foxtail, green (green foxtail, Setaria viridis), deadnettle (henbit deadnettle, Lamium amplexicaule), ryegrass, Ital. (Italian ryegrass, Lolium multiflorum), kochia (Kochia scoparia), lambsquarters (Chenopodium album), oilseed rape (Brassica napus), pigweed (Amaranthus retroflexus), chamomile (scentless chamomile, Matricaria inodora), speedwell (bird's-eye speedwell, Veronica persica), barley, spring (spring barley, Hordeum vulgare), wheat, spring (spring wheat, Triticum aestivum), buckwheat, wild (wild buckwheat, Polygonum convolvulus), wild mustard (Sinapis arvensis), oat, wild (wild oat, Avena fatua), radish, wild (wild radish, Raphanus raphanistrum), […]), barley, winter (winter barley, Hordeum vulgare), and wheat, winter (winter wheat, Triticum aestivum) were planted into a silt loam soil and treated preemergence with test chemicals formulated in a non-phytotoxic solvent mixture which included a surfactant. At the same time, these species were planted in pots containing Sunshine Redi-Earth® planting medium comprising spaghnum peat moss, vermiculite, starter nutrients and dolomitic limestone and treated with postemergence applications of the test chemicals formulated in the same manner. Plants ranged in height from 2 to 18 cm (1- to 4-leaf stage). Treated plants and controls were maintained in a controlled growth environment for 14 to 21 d after which time all species were compared to controls and visually evaluated. […] A dash (-) response means no test result.

[2] = test system: bluegrass; test: Test D preemergence; format: in vivo, Poa annua; conditions: for Plant response rating: Bluegrass: scale 0 to 100
Text: as §1

[3] = test system: deadnettle; test: Test D postemergence; format: in vivo, Lamium amplexicaule; conditions: scale 0 to 100
Text: as §1

[4] = test system: buckwheat, wild; test: Test D preemergence; format: in vivo, Polygonum convolvulus; conditions: for Plant response rating: Buckwheat, Wild: scale 0 to 100
Text: as §1

[5] = test system: kochia; test: Test A preemergence; format: in vivo, Kochia scoparia; conditions: 0 to 100 scale (0 no effect, 100 complete control)
Method in brief: (§2)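 Visual 0–100 ratings (0 no effect, 100 complete control) made roughly 10 days after treatment, comparing greenhouse-grown plants to untreated controls. Formulated test chemicals, with surfactant, went either as directed soil spray at planting or onto 2–10 cm seedlings bearing one to two leaves.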

[6] = test system: wheat, spring; test: Test D preemergence; format: in vivo, Triticum aestivum; conditions: for Plant response rating: Wheat, Spring: scale 0 to 100
Text: as §1

[7] = test system: wheat, winter; test: Test D preemergence; format: in vivo, Triticum aestivum; conditions: for Plant response rating: Wheat, Winter: scale 0 to 100
Text: as §1

[8] = test system: kochia; test: Test D postemergence; format: in vivo, Kochia scoparia; conditions: scale 0 to 100
Text: as §1

[9] = test system: ragweed; test: Test A postemergence; format: in vivo, Ambrosia elatior; conditions: 0 to 100 scale (0 no effect, 100 complete control), approx. 10 d
Method in brief: as §2

[10] = test system: johnsongrass; test: Test C preemergence; format: in vivo, Sorghum halepense; conditions: for Plant response rating (scale of 0 to 100 where 0 is no effect and 100 is complete control): Johnsongrass, preemergence; for Johnsongrass plant response rating (0 to 100): Preemergence, visual rating after 13 to 15 d
Text: (§3) Seeds of plant species selected from blackgrass (Alopecurus myosuroides), ryegrass, Italian (Italian ryegrass, Lolium multiflorum), wheat (winter wheat, Triticum aestivum), galium (catchweed bedstraw, Galium aparine), corn (Zea mays), crabgrass, large (large crabgrass, Digitaria sanguinalis), foxtail, giant, (giant foxtail, Setaria faberii), johnsongrass (Sorghum halepense), lambsquarters (Chenopodium album), morningglory (Ipomoea coccinea), nutsedge, yellow (yellow nutsedge, Cyperus esculentus), pigweed (Amaranthus retroflexus), ragweed (common ragweed, Ambrosia elatior), soybean (Glycine max), barnyardgrass (Echinochloa crus-galli), oilseed rape (Brassica napus), waterhemp (common waterhemp, Amaranthus rudis), and velvetleaf (Abutilon theophrasti) were planted into a blend of loam soil and sand and treated preemergence with test chemicals formulated in a non-phytotoxic solvent mixture which included a surfactant. At the same time, plants selected from these crop and weed species and also chickweed (common chickweed, Stellaria media), oat, wild (wild oat, Avena fatua), and kochia (Kochia scoparia), were planted in pots containing Sunshine Redi-Earth® planting medium comprising spaghnum peat moss, vermiculite, starter nutrients and dolomitic limestone and treated with postemergence applications of test chemicals formulated in the same manner. Plants ranged in height from 2 to 18 cm (1- to 4-leaf stage) for postemergence treatments. […] A dash (-) response means no test result.

[11] = test system: oilseed rape; test: Test C preemergence; format: in vivo, Brassica napus; conditions: for Plant response rating (scale of 0 to 100 where 0 is no effect and 100 is complete control): Oilseed Rape, preemergence; for Oilseed Rape plant response rating (0 to 100): Preemergence, visual rating after 13 to 15 d
Text: as §3

[12] = test system: barnyardgrass; test: Test C preemergence; format: in vivo, Echinochloa crus-galli; conditions: for Plant response rating (scale of 0 to 100 where 0 is no effect and 100 is complete control): Barnyardgrass, preemergence; for Barnyardgrass plant response rating (0 to 100): Preemergence, visual rating after 13 to 15 d
Text: as §3

[13] = 16 g ai/ha, 0 is no effect, 100 is complete control

| Structure (SMILES) | Plant response rating: Ryegrass, Ital. ([1]; 31 g ai/ha) | Plant response rating: Ryegrass, Ital. ([1]; 62 g ai/ha) | Plant response rating: Ryegrass, Ital. ([1]; 125 g ai/ha) | Plant response rating: Bluegrass ([2]; 31 g ai/ha) | Plant response rating: Bluegrass ([2]; 62 g ai/ha) | Plant response rating: Bluegrass ([2]; 125 g ai/ha) | Plant response rating: Deadnettle ([3]; 31 g ai/ha) | Plant response rating: Deadnettle ([3]; 62 g ai/ha) | Plant response rating: Deadnettle ([3]; 125 g ai/ha) | Plant response rating: Buckwheat, Wild ([4]; 31 g ai/ha) | Plant response rating: Buckwheat, Wild ([4]; 62 g ai/ha) | Plant response rating: Buckwheat, Wild ([4]; 125 g ai/ha) | Plant response rating: Wheat, Spring ([6]; 62 g ai/ha) | Plant response rating: Wheat, Spring ([6]; 125 g ai/ha) | Plant response rating: Wheat, Winter ([7]; 62 g ai/ha) | Plant response rating: Wheat, Winter ([7]; 125 g ai/ha) | Plant response rating: Kochia ([8]; 31 g ai/ha) | Plant response rating: Kochia ([8]; 62 g ai/ha) | Plant response rating: Kochia ([8]; 125 g ai/ha) | Plant response rating: Ryegrass, Ital. ([1]; 250 g ai/ha) | further results |
| --- | --- | --- | --- | --- | --- | --- | --- | --- | --- | --- | --- | --- | --- | --- | --- | --- | --- | --- | --- | --- | --- |
| COc1nc(-c2ccc(Cl)cc2)nn1Cc1ccnc(C(F)(F)F)c1 [Compound 28] | 20 | 30 | 45 | 35 | 45 | 85 | 60 | 70 | 75 | 65 | 75 | 95 | 20 | 25 | 25 | 20 | 85 | 85 | 95 | – | Plant response rating: Ryegrass, Ital. ([1]; 16 g ai/ha): 20; Plant response rating (0 to 100), Bluegrass [2, 13]: 25; Plant response rating: Deadnettle ([3]; 16 g ai/ha): 50; Plant response rating (0 to 100), Buckwheat, Wild [4, 13]: 60; Plant response rating, Kochia ([5]; 125 g ai/ha): 70; Plant response rating, Kochia ([5]; 500 g ai/ha, approx. 10 d): 90; Plant response rating (0 to 100), Wheat, Spring [6, 13]: 10; Plant response rating (0 to 100), Wheat, Winter [7, 13]: 15; Plant response rating: Kochia ([8]; 16 g ai/ha): 85; Plant response rating, Ragweed ([9]; 125 g ai/ha): 20; Plant response rating, Ragweed ([9]; 500 g ai/ha): 30 |
| CCOc1nc(-c2ccc(F)cc2)nn1Cc1ccnc(C(F)(F)F)c1 [Compound 8, 4-[[5-ethoxy-3-(4-fluorophenyl)-1H-1,2,4-triazol-1-yl]methyl]-2-(trifluoromethyl)pyridine] | 35 | 35 | 55 | 70 | 70 | 100 | 75 | 80 | 95 | 35 | 100 | 100 | 15 | 35 | 25 | 40 | 75 | 80 | 85 | 55 | Plant response rating: Bluegrass ([2]; 250 g ai/ha): 100; Plant response rating: Deadnettle ([3]; 250 g ai/ha): 90; Plant response rating: Buckwheat, Wild ([4]; 250 g ai/ha): 100; Plant response rating (scale of 0 to 100 where 0 is no effect and 100 is complete control) ([10]; 125 g ai/ha): 98; Plant response rating (scale of 0 to 100 where 0 is no effect and 100 is complete control) ([10]; 250 g ai/ha): 100; Johnsongrass plant response rating (0 to 100) ([10]; 31 g ai/ha): 85; Johnsongrass plant response rating (0 to 100) ([10]; 62 g ai/ha): 98; Plant response rating (scale of 0 to 100 where 0 is no effect and 100 is complete control) ([11]; 125 g ai/ha): 100; Plant response rating (scale of 0 to 100 where 0 is no effect and 100 is complete control) ([11]; 250 g ai/ha): 100; Oilseed Rape plant response rating (0 to 100) ([11]; 31 g ai/ha): 95; Oilseed Rape plant response rating (0 to 100) ([11]; 62 g ai/ha): 95; Plant response rating (scale of 0 to 100 where 0 is no effect and 100 is complete control) ([12]; 125 g ai/ha): 100; Plant response rating (scale of 0 to 100 where 0 is no effect and 100 is complete control) ([12]; 250 g ai/ha): 100; Barnyardgrass plant response rating (0 to 100) ([12]; 31 g ai/ha): 98; Barnyardgrass plant response rating (0 to 100) ([12]; 62 g ai/ha): 100; Plant response rating: Wheat, Spring ([6]; 250 g ai/ha): 70; Plant response rating: Wheat, Winter ([7]; 250 g ai/ha): 65; Plant response rating: Kochia ([8]; 250 g ai/ha): 80 |
| CCc1nc(-c2ccc(C(F)(F)F)cc2)nn1Cc1ccnc(C(F)(F)F)c1 [Compound 1, 4-[[5-ethyl-3-[4-(trifluoromethyl)phenyl]-1H-1,2,4-triazol-1-yl]methyl]-2-(trifluoromethyl)pyridine] | 10 | 15 | 20 | 10 | 35 | 60 | 65 | 60 | 70 | 60 | 70 | 65 | 0 | 0 | 0 | 0 | 65 | 75 | 80 | 35 | Plant response rating: Bluegrass ([2]; 250 g ai/ha): 100; Plant response rating: Deadnettle ([3]; 250 g ai/ha): 85; Plant response rating: Buckwheat, Wild ([4]; 250 g ai/ha): 100; Plant response rating (scale of 0 to 100 where 0 is no effect and 100 is complete control) ([10]; 125 g ai/ha): 55; Plant response rating (scale of 0 to 100 where 0 is no effect and 100 is complete control) ([10]; 250 g ai/ha): 80; Johnsongrass plant response rating (0 to 100) ([10]; 31 g ai/ha): 25; Johnsongrass plant response rating (0 to 100) ([10]; 62 g ai/ha): 35; Plant response rating (scale of 0 to 100 where 0 is no effect and 100 is complete control) ([11]; 125 g ai/ha): 100; Plant response rating (scale of 0 to 100 where 0 is no effect and 100 is complete control) ([11]; 250 g ai/ha): 100; Oilseed Rape plant response rating (0 to 100) ([11]; 31 g ai/ha): 25; Oilseed Rape plant response rating (0 to 100) ([11]; 62 g ai/ha): 90; Plant response rating (scale of 0 to 100 where 0 is no effect and 100 is complete control) ([12]; 125 g ai/ha): 55; Plant response rating (scale of 0 to 100 where 0 is no effect and 100 is complete control) ([12]; 250 g ai/ha): 70; Barnyardgrass plant response rating (0 to 100) ([12]; 31 g ai/ha): 10; Barnyardgrass plant response rating (0 to 100) ([12]; 62 g ai/ha): 35; Plant response rating: Wheat, Spring ([6]; 250 g ai/ha): 5; Plant response rating: Wheat, Winter ([7]; 250 g ai/ha): 0; Plant response rating: Kochia ([8]; 250 g ai/ha): 80 |
